Article PMC8222254, “Self-assembly of an anion receptor with metal-dependent kinase inhibition and potent in vitro anti-cancer properties” (Nature Communications, 2021)
pIC50: −log10 of the molar value. Where “and” joins values, the source holds several entries; their conditions need not be identical. Equal values may be shown once. Read-outs that look alike come from different tables or passages of the source.

What was measured:
Assay in all cases: Chemosensitivity, 96 h continuous exposure, MTT assay
Format in all cases: cell-based, human
[1] = test system: A549
Outline: (§1)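 Cells were seeded overnight at 37 °C (2 × 10^3/well; GBM1 at 3 × 10^3/well on poly-L-ornithine/laminin in Neurobasal with hFGF/rhEGF), then exposed to compound concentration ranges for 96 h. Viability was read by MTT (4 h, formazan in DMSO, A540) and IC50 taken from dose–response curves.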

[2] = test system: MCF10A non-cancer cells
Outline: as §1

[3] = test system: ARPE-19 non-cancer cells
Outline: as §1

[4] = test system: HCT116 p53-/-
Outline: as §1

[5] = test system: H460
Outline: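 IC50 is the concentration giving 50% growth reduction, derived from dose-response curves of MTT absorbance at 540 nm. Before dosing, lines were plated at 2 × 10^3 cells/well, GBM1 stem-like cells at 3 × 10^3/well, overnight at 37 °C; compound exposure lasted 96 h without interruption, vehicle 0.2% DMSO.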

[6] = test system: HT-29
Outline: as §1

[7] = test system: HCT116 p53+/+
Outline: as §1

## O=P(O)(O)Oc1ccccc1.[Zn+2].[Zn+2].[Zn+2].c1ccc(-c2csc(NCCN(CCNc3nc(-c4ccccn4)cs3)CCNc3nc(-c4ccccn4)cs3)n2)nc1.c1ccc(-c2csc(NCCN(CCNc3nc(-c4ccccn4)cs3)CCNc3nc(-c4ccccn4)cs3)n2)nc1 [[L2Zn3(O3POPh)]4+]
[1]; A549, mean of replicates, read-out: Mean IC50
  pIC50: 6.13
[1]; A549, read-out: Mean IC50 values
  pIC50: 6.13
[1]; A549, single replicate, read-out: IC50 values for each replicate
  pIC50: 6.19 and 6.10 and 6.11
[1]; IC50 ARPE-19 / IC50 A549
  Selectivity index (ARPE19): 311.57
[1]; IC50 MCF10A / IC50 A549
  Selectivity index (MCF10A): 70.84
[1]; ratio of IC50, A549
  Relative potency (+ anion to no anion), Ratio + anion:no anion: 1.83
[1]; ratio of SI (ARPE-19), A549
  Selectivity indices relative to ARPE-19, Ratio + anion:no anion: 0.798
[1]; ratio of SI (MCF 10A), A549
  Selectivity indices relative to MCF10A, Ratio + anion:no anion: 0.177
[2]; MCF10A non-cancer, read-out: Mean IC50 values
  pIC50: 4.28
[2]; MCF10A, mean of replicates, read-out: Mean IC50
  pIC50: 4.28
[2]; MCF10A, single replicate, read-out: IC50 values for each replicate
  pIC50: 4.42 and 4.25 and 4.20
[2]; ratio of IC50, MCF10A
  Relative potency (+ anion to no anion), Ratio + anion:no anion: 0.32
[3]; ARPE-19, mean of replicates, read-out: Mean IC50
  pIC50: 3.64
[3]; ARPE-19, single replicate, read-out: IC50 values for each replicate
  pIC50: 3.56 and 3.68
[3]; ARPE-19 non-cancer, read-out: Mean IC50 values
  pIC50: 3.64
[3]; ratio of IC50, ARPE-19
  Relative potency (+ anion to no anion), Ratio + anion:no anion: 1.46
[4]; HCT116 p53-/-, mean of replicates, read-out: Mean IC50
  pIC50: 7.07
[4]; HCT116 p53-/-, read-out: Mean IC50 values
  pIC50: 7.07
[4]; HCT116 p53-/-, single replicate, read-out: IC50 values for each replicate
  pIC50: 6.81 and 7.19 and 7.44
[4]; IC50 ARPE-19 / IC50 HCT116 p53-/-
  Selectivity index (ARPE19): 2708.82
[4]; IC50 MCF10A / IC50 HCT116 p53-/-
  Selectivity index (MCF10A): 615.92
[4]; ratio of IC50, HCT116 p53-/-
  Relative potency (+ anion to no anion), Ratio + anion:no anion: 1.18
[4]; ratio of SI (ARPE-19), HCT116 p53-/-
  Selectivity indices relative to ARPE-19, Ratio + anion:no anion: 1.240
[4]; ratio of SI (MCF 10A), HCT116 p53-/-
  Selectivity indices relative to MCF10A, Ratio + anion:no anion: 0.274
[5]; H460, mean of replicates, read-out: Mean IC50
  pIC50: 6.56
[5]; H460, read-out: Mean IC50 values
  pIC50: 6.56
[5]; H460, single replicate, read-out: IC50 values for each replicate
  pIC50: 6.58 and 6.29 and 6.73 and 6.86
[5]; IC50 ARPE-19 / IC50 H460
  Selectivity index (ARPE19): 834.24
[5]; IC50 MCF10A / IC50 H460
  Selectivity index (MCF10A): 189.68
[5]; ratio of IC50, H460
  Relative potency (+ anion to no anion), Ratio + anion:no anion: 0.77
[5]; ratio of SI (ARPE-19), H460
  Selectivity indices relative to ARPE-19, Ratio + anion:no anion: 1.910
[6]; HT29, mean of replicates, read-out: Mean IC50
  pIC50: 6.42
[6]; HT29, read-out: Mean IC50 values
  pIC50: 6.42
[6]; HT-29, single replicate, read-out: IC50 values for each replicate
  pIC50: 6.13 and 6.57 and 6.61 and 6.58
[6]; IC50 ARPE-19 / IC50 HT29
  Selectivity index (ARPE19): 607.52
[6]; IC50 MCF10A / IC50 HT29
  Selectivity index (MCF10A): 138.13
[6]; ratio of IC50, HT29
  Relative potency (+ anion to no anion), Ratio + anion:no anion: 2.24
[6]; ratio of SI (ARPE-19), HT29
  Selectivity indices relative to ARPE-19, Ratio + anion:no anion: 0.653
[6]; ratio of SI (MCF 10A), HT29
  Selectivity indices relative to MCF10A, Ratio + anion:no anion: 0.144
[7]; HCT116 p53+/+, mean of replicates, read-out: Mean IC50
  pIC50: 7.19
[7]; HCT116 p53+/+, read-out: Mean IC50 values
  pIC50: 7.19
[7]; HCT116 p53+/+, single replicate, read-out: IC50 values for each replicate
  pIC50: 7.24 and 7.19 and 7.15
[7]; IC50 ARPE-19 / IC50 HCT116 p53+/+
  Selectivity index (ARPE19): 3597.66
[7]; IC50 MCF10A / IC50 HCT116 p53+/+
  Selectivity index (MCF10A): 818.02
[7]; ratio of IC50, HCT116 p53+/+
  Relative potency (+ anion to no anion), Ratio + anion:no anion: 0.14
[7]; ratio of SI (ARPE-19), HCT116 p53+/+
  Selectivity indices relative to ARPE-19, Ratio + anion:no anion: 10.661
[7]; ratio of SI (MCF 10A), HCT116 p53+/+
  Selectivity indices relative to MCF10A, Ratio + anion:no anion: 2.358
